{"source": "patent US20210177881A1", "about": "“MEDICAMENT FOR PREVENTING AND/OR TREATING PAIN AND/OR FEVER, COMPOSITE PRODUCT AND USE THEREOF” (SHANGHAI TONGLIAN PHARMACEUTICAL CO., LTD., priority 2018, published 2021)", "key": {"[1]": {"test_system": "rats of the LPS fever model", "assay": "LPS-induced common fever model in rats", "assay_type": "in vivo, Sprague Dawley rats", "settings": "30 mg/kg intragastric", "description": "Male healthy Sprague Dawley rats (SPF), with a weight of 220-260 g, purchased from Liaoning Changsheng Biotechnology Co., Ltd., with a license number of SCXK (Liao) 2015-0001. […] Sodium chloride injection ([…], 500 mL): (Shijiazhuang No.4 Pharmaceutical Co., Ltd), Batch number: 101217406; 0.9% sodium chloride injection was dissolved and diluted to 1 mg/ml, then packed in EP tubes and stored at −80 DEG C. for later use; immediately before use, it was diluted with 0.9% sodium chloride injection into a sterile injection of 10 μg /ml(100 μg /kg). Male SD rats, with a weight of 220-260 g, were fed adaptively for 3 days, ate food and drank water freely with 12 hours of day-night circle. […] Each group was administrated with the drug based on 1 ml/100 g body weight by intragastric administration."}, "[2]": {"test_system": "rats of the dry yeast fever model", "assay": "Common fever model of rats induced by dry yeast", "assay_type": "in vivo", "settings": "30 mg/kg intragastric", "description": "Male SD rats, with a weight of 220-260 g, were fed adaptively for 3 days, ate food and drank water freely with 12 hours of day-night circle. […] Each group was administrated with the drug based on 1 ml/100 g body weight by intragastric administration. […] Operating steps: except that the LPS in Experiment 1 was replaced by the dry yeast, other experimental operating steps and dosage selections were the same as those in Experiment 1."}, "mice [3]": {"test_system": "mice", "assay": "Analgesia experiment on a hot plate in mice", "assay_type": "in vivo, Kunming mice", "settings": "15 mg/kg", "description": "The mouse hot plate method is a classic method for screening analgesics. Its principle is to put the mouse on a hot plate heated to a constant temperature of (55±0.1 DEG C.) in advance, and when the foot of the mouse is stimulated by the hot plate to produce pain, the time required for foot licking is taken as the pain threshold, which is taken as the observation index, and the changes of threshold before and after medication are compared to evaluate the analgesic effect.\nBefore the experiment, the mice in each group were given intragastric administration. The mice in the blank control group were given the same volume of normal saline every day for 3 consecutive days.\nThe mice were put on a hot plate pain meter heated to 55 DEG C. in advance, and the time from putting into the hot plate to licking hind feet was recorded with a stopwatch as the pain threshold of the mice. […] It was measured once at 30, 60, 90 and 120 min after administration. After the end of the experiment, the percentage of pain threshold increase was calculated according to the measured average value of pain threshold. The percentage of pain threshold increase %=(an average pain threshold after administration−an average pain threshold before administration)÷the average pain threshold before administration×100%."}, "[4]": {"test_system": "rats with tibial cancer pain", "assay": "van Frey mechanical pain threshold in rats with tibial cancer pain (Walker256)", "assay_type": "in vivo, rat", "description": "Walker rat breast cancer cells were purchased from Shanghai Institute of Biomedical Engineering. The abdominal cavity of female Wistar rats of 70-80 g was inoculated with 1 ml of ascites tumor (about 2×10^7 cells /ml). After 7-10 days, 5 ml of ascites was extracted and centrifuged for 3 minutes (1300 rpm). After precipitation, washing was performed with 10 ml PBS, and then centrifuged and precipitated again. Then, resuspending was performed with PBS, counting was performed, the cell concentration was adjusted to 1×10^7 cells/ml by PBS and placed in an ice box for later use.\nRats were anesthetized by intraperitoneal injection of 10% chlorate hydrate (4 ml/kg body weight), a skin was prepared at the right knee joint, and the skin was disinfected with 75% alcohol. The knee joint was fixed with the left hand to make the skin on its surface tense. A hole with a depth about 1 cm was drilled along the longitudinal axis of tibia at the medial edge of patellar ligament of the knee joint with a 7# needle. Then, a microsampler with tumor cells (before injection, 1 μl of air, 2 μl of gelatin sponge aqueous solution, 1 μl of air, 4 μl of tumor cells or PBS were inhaled in turn) was used, and 4 μl of tumor cells was injected into the tibia bone marrow cavity; The rats in the control group were injected with the same amount of PBS, and finally all of them were sealed with 2 μl of gel sponge solution. After injection, the needles were kept for 1 minute to prevent the injection from oozing out.\nRats were divided into two groups: a PBS injection control group and a Walker256 model group. The radiation paw withdrawal latency (PWL) was measured before modeling as the basic pain threshold, and the PWL was measured every other day after modeling as the thermal hyperalgesia threshold. At the same time, the mechanical pain caused by von Frey filament was measured. The threshold of mechanical pain was measured before modeling as the basic pain threshold, and the threshold of mechanical allodynia was measured every other day after modeling.\nAfter successfully establishing the model of tibia cancer pain, continuous intragastric administration was performed for 12 days. The rats in the model group were intragastrically given the same volume of normal saline."}, "mice [5]": {"test_system": "mice", "assay": "Analgesic experiment of writhing method in mice (acetic acid)", "assay_type": "in vivo, Kunming mice", "settings": "15 mg/kg once on the day of the experiment"}, "[6]": {"settings": "literature reports; cited from earlier work"}, "[7]": {"settings": "15 mg/kg on the last day, same side"}}, "data": [{"compound": "CC(C)Cc1ccc(C(C)C(=O)O)cc1", "note": "(centres unmarked) [ibuprofen, Ibuprofen]", "values": [{"measurement": "after administration ΔT", "setting": "[1]; 1 h", "result": "0.27 ± 0.27", "unit": "°C"}, {"measurement": "after administration ΔT", "setting": "[1]; 2 h", "result": "0.33 ± 0.43", "unit": "°C"}, {"measurement": "after administration ΔT", "setting": "[1]; 4 h", "result": "0.34 ± 0.38", "unit": "°C"}, {"measurement": "after administration ΔT", "setting": "[1]; 6 h", "result": "1.23 ± 0.24", "unit": "°C"}, {"measurement": "after administration ΔT", "setting": "[1]; 8 h", "result": "1.32 ± 0.24", "unit": "°C"}, {"measurement": "after administration ΔT", "setting": "[1]; 10 h", "result": "1.23 ± 0.39", "unit": "°C"}, {"measurement": "after administration ΔT", "setting": "[2]; 1 h", "result": "0.26 ± 0.26", "unit": "°C"}, {"measurement": "after administration ΔT", "setting": "[2]; 2 h", "result": "0.40 ± 0.31", "unit": "°C"}, {"measurement": "after administration ΔT", "setting": "[2]; 4 h", "result": "0.54 ± 0.38", "unit": "°C"}]}, {"compound": "CN1CC[C@]23c4c5ccc(O)c4O[C@H]2[C@@H](O)C=C[C@H]3[C@H]1C5.Cl", "note": "[positive control, morphine hydrochloride]", "values": [{"measurement": "Percentage of pain threshold increase", "setting": "mice [3]; 30 min", "result": 68.11, "unit": "%"}, {"measurement": "Percentage of pain threshold increase", "setting": "mice [3]; 60 min", "result": 54.01, "unit": "%"}, {"measurement": "Percentage of pain threshold increase", "setting": "mice [3]; 90 min", "result": 51.90, "unit": "%"}, {"measurement": "Percentage of pain threshold increase", "setting": "mice [3]; 120 min", "result": 38.17, "unit": "%"}, {"measurement": "analgesic rate, opposite side", "setting": "[4]; 15 mg/kg on the last day", "result": 133.3, "unit": "%"}, {"measurement": "van Frey mechanical pain threshold, opposite side", "setting": "[4]; 15 mg/kg on the last day", "result": "6.3 ± 0.5", "unit": "g"}, {"measurement": "analgesic rate, same side", "setting": "[4]; [7]", "result": 205.5, "unit": "%"}, {"measurement": "van Frey mechanical pain threshold, same side", "setting": "[4]; [7]", "result": "5.5 ± 0.2", "unit": "g"}, {"measurement": "analgesic rate, opposite side", "setting": "[4]; 80 mg/kg intragastric, 12 days", "result": 125.9, "unit": "%"}, {"measurement": "van Frey mechanical pain threshold, opposite side", "setting": "[4]; 80 mg/kg intragastric, 12 days", "result": "6.1 ± 0.2", "unit": "g"}, {"measurement": "van Frey mechanical pain threshold, same side", "setting": "[4]; 80 mg/kg intragastric, 12 days, same side", "result": "5.2 ± 0.6", "unit": "g"}, {"measurement": "analgesic rate", "setting": "mice [5]", "result": 45.83, "unit": "%"}, {"measurement": "times of writhing", "setting": "mice [5]", "result": "30.17 ± 6.14", "unit": "n"}]}, {"compound": "spiramycin", "values": [{"measurement": "absolute oral bioavailability", "setting": "[6]", "result": "30-40%"}]}]}
